These molecules were tested against T1, GPR40 of human origin (Homo sapiens, UniProt O14842) (assay: Agonist action on GPR40 of human origin (Ca2+ fluctuation in a CHO cell strain stably expressing GPR40)). Conditions: Calcium 4 Assay Kit, fluorescence intensity variation.
T1 construct: expressed in transfected cells
Assay type: cell-based
Description: A CHO cell strain stably expressing GPR40 of human origin was used to determine the agonist action of a title compound. This cell strain was seeded in a clear bottom 96 well plate at 2×10^4 cells/100 μL/well. The cell strain was cultured in a CO2 incubator overnight using a Ham's F-12 medium containing a 10% fetal bovine serum, 100 U/mL penicillin, 0.1 mg/mL streptomycin, and 400 μg/mL Geneticin. Calcium 4 Assay Kit (Molecular Devices) was used as a fluorescent calcium indicator. One mL of 77 mg/mL probenecid (Invitrogen) was added to 100 mL of a calcium indicator solution to prepare a solution (loading solution) mixed with a 20 mM HEPES-containing Hanks' balanced salt solution (HBSS) in equal proportions. To the cells from which the culture solution was removed, 200 μL of the loading solution was added, and the cells were cultured in a CO2 incubator for 1 hour. The title compound was diluted with a 20 mM HEPES-containing HBSS and was added to the cells by 50 μL, and the fluctuation of the Ca^2+ concentration was measured by an intracellular ion analyzer. The EC50 value of the title compound was calculated using the dose-response curve of fluorescence intensity variation.

T1 sequence (O14842 whole entry): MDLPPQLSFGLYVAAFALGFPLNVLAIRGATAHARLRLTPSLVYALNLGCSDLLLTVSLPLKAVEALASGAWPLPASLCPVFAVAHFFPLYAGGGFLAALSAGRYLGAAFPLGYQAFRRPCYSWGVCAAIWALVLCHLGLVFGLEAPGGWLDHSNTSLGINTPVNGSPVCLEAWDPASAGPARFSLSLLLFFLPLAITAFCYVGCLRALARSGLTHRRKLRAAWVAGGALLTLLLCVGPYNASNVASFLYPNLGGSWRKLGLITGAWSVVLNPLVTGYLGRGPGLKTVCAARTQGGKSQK

EC50, < 300 nM:
Cc1cccc(C)c1-c1cccc2c1CC[C@H]2Oc1ccc(C2CC(=O)NS(=O)(=O)C2)cc1 (stereo partly drawn) [Example 37, 5-(4-(((R)-4-(2,6-dimethylphenyl)-2,3-dihydro-1H-inden-1-yl)oxy)phenyl)-1,2-thiazinan-3-one 1,1-dioxide]
[O-][S+]1N=C(O)CC1c1ccc(O[C@@H]2CCc3c(-c4ccccc4C(F)(F)F)cccc32)cc1 (single isomer, unassigned) [Example 64]
Cc1ccccc1-c1cccc2c1CC[C@H]2Oc1ccc(C2CC(O)=N[S+]2[O-])cc1 (single isomer, unassigned) [Example 66]
Cc1cccc(Oc2cccc3c2CC[C@H]3Oc2ccc(C3CC(O)=N[S+]3[O-])cc2)c1 (single isomer, unassigned) [53(A)-a]
COc1cc(C)c(-c2cccc3c2CC[C@H]3Oc2ccc(C3CC(=O)NS(=O)(=O)C3)cc2)c(C)c1 (stereo partly drawn) [Example 46, 5-(4-(((R)-4-(4-methoxy-2,6-dimethylphenyl)-2,3-dihydro-1H-inden-1-yl)oxy)phenyl)-1,2-thiazinan-3-one 1,1-dioxide]
O=C1CC(c2ccc(O[C@@H]3CCc4c(-c5ccccc5C(F)(F)F)cccc43)cc2)CS(=O)(=O)N1 (stereo partly drawn) [Example 38, 5-(4-(((R)-4-(2-(trifluoromethyl)phenyl)-2,3-dihydro-1H-inden-1-yl)oxy)phenyl)-1,2-thiazinan-3-one 1,1-dioxide]
Cc1cccc(C)c1-c1cccc2c1CC[C@H]2Oc1ccc(C2CC(O)=N[S+]2[O-])cc1 (single isomer, unassigned) [Example 60]
COc1cccc(F)c1-c1cccc2c1CC[C@H]2Oc1ccc(C2CC(O)=N[S+]2[O-])cc1 (single isomer, unassigned) [Example 68]
Cc1nc(OCCC(C)(C)O)ccc1Oc1cccc2c1CC[C@H]2Oc1ccc(C2CC(O)=N[S+]2[O-])cc1 (single isomer, unassigned) [51(A)-a]
N#Cc1ccc(Oc2cccc3c2CC[C@H]3Oc2ccc(C3CC(=O)N[S+]3[O-])cc2)cc1 (single isomer, unassigned) [25(A)-b]
Cc1ncccc1Oc1cccc2c1CC[C@H]2Oc1ccc(C2CC(O)=N[S+]2[O-])cc1 (single isomer, unassigned) [55(A)-b]
O=C1CC(c2ccc(O[C@@H]3CCc4c(-c5ccccc5C(F)(F)F)cccc43)cc2)CS(=O)(=O)N1 (stereo partly drawn) [Example 44, 5-(4-(((R)-4-(2-(trifluoromethyl)phenyl)-2,3-dihydro-1H-inden-1-yl)oxy)phenyl)-1,2-thiazinan-3-one 1,1-dioxide]
Cc1nc(OCCCS(C)(=O)=O)ccc1-c1cccc2c1CC[C@H]2Oc1ccc(C2CC(O)=N[S+]2[O-])cc1 (single isomer, unassigned) [Example 62]
[O-][S+]1N=C(O)CC1c1ccc(O[C@@H]2CCc3c(-c4cccnc4C(F)(F)F)cccc32)cc1 (single isomer, unassigned) [Example 65]
COc1ccc(-c2cccc3c2CC[C@H]3Oc2ccc(C3CC(O)=N[S+]3[O-])cc2)c(C)n1 (single isomer, unassigned) [Example 63]
CCOCCOc1cc(C)c(-c2cccc3c2CC[C@H]3Oc2ccc(C3CC(O)=N[S+]3[O-])cc2)c(C)c1 (single isomer, unassigned) [Example 58]
CCOCCOc1cc(C)c(-c2cccc3c2CC[C@H]3Oc2ccc(C3CC(=O)NS(=O)(=O)C3)cc2)c(C)c1 (stereo partly drawn) [Example 42, 5-(4-(((R)-4-(4-(2-ethoxyethoxy)-2,6-dimethylphenyl)-2,3-dihydro-1H-inden-1-yl)oxy)phenyl)-1,2-thiazinan-3-one 1,1-dioxide]
COc1ccc(Oc2cccc3c2CC[C@H]3Oc2ccc(C3CC(O)=N[S+]3[O-])cc2)cn1 (single isomer, unassigned) [52(A)-a]
Cc1nc(OCCC(C)(C)O)ccc1-c1cccc2c1CC[C@H]2Oc1ccc(C2CC(=O)N[S+]2[O-])cc1 (single isomer, unassigned) [23(A)-a]
CCOCCOc1cc(C)c(-c2cccc3c2CC[C@H]3Oc2ccc(C3CC(O)=N[S+]3[O-])cc2)c(C)c1 (single isomer, unassigned) [Example 57]
COc1ccc(Oc2cccc3c2CC[C@H]3Oc2ccc(C3CC(O)=N[S+]3[O-])cc2)cn1 (single isomer, unassigned) [52(A)-b]
CCOCCOc1ccc(-c2cccc3c2CC[C@H]3Oc2ccc(C3CC(O)=N[S+]3[O-])cc2)c(C)n1 (single isomer, unassigned) [54(A)-a]
Cc1ccc(F)cc1-c1cccc2c1CC[C@H]2Oc1ccc(C2CC(O)=N[S+]2[O-])cc1 (single isomer, unassigned) [Example 67]
COc1cc(C)c(-c2cccc3c2CC[C@H]3Oc2ccc(C3CC(O)=N[S+]3[O-])cc2)c(C)c1 (single isomer, unassigned) [Example 61]
Cc1cccc(Oc2cccc3c2CC[C@H]3Oc2ccc(C3CC(O)=N[S+]3[O-])cc2)c1 (single isomer, unassigned) [53(A)-b]
Cc1ncccc1Oc1cccc2c1CC[C@H]2Oc1ccc(C2CC(O)=N[S+]2[O-])cc1 (single isomer, unassigned) [55(A)-a]
CCOc1ccc(F)cc1-c1cccc2c1CC[C@H]2Oc1ccc(C2CC(O)=N[S+]2[O-])cc1 (single isomer, unassigned) [Example 69]
Cc1cc(O[C@@H]2CCc3c(-c4c(C)cc(OCCC(C)(C)O)cc4C)cccc32)ccc1C1CC(=O)NS(=O)(=O)C1 (stereo partly drawn) [Example 47, 5-(4-(((R)-4-(4-(3-hydroxy-3-methylbutoxy)-2,6-dimethylphenyl)-2,3-dihydro-1H-inden-1-yl)oxy)-2-methylphenyl)-1,2-thiazinan-3-one 1,1-dioxide]
O=C1CC(c2ccc(O[C@@H]3CCc4c(Oc5ccccc5)cccc43)cc2)CS(=O)(=O)N1 (stereo partly drawn) [Example 49, 5-(4-(((R)-4-phenoxy-2,3-dihydro-1H-inden-1-yl)oxy)phenyl)-1,2-thiazinan-3-one 1,1-dioxide (C)]
CCOCCOc1cc(C)c(-c2cccc3c2CC[C@H]3Oc2ccc(C3CC(=O)NS(=O)(=O)C3)cc2)c(C)c1 (stereo partly drawn) [Example 39, 5-(4-(((R)-4-(4-(2-ethoxyethoxy)-2,6-dimethylphenyl)-2,3-dihydro-1H-inden-1-yl)oxy)phenyl)-1,2-thiazinan-3-one 1,1-dioxide]
O=C1CC(c2ccc(O[C@@H]3CCc4c(Oc5ccccc5)cccc43)cc2)CS(=O)(=O)N1 (stereo partly drawn) [Example 48, 5-(4-(((R)-4-phenoxy-2,3-dihydro-1H-inden-1-yl)oxy)phenyl)-1,2-thiazinan-3-one 1,1-dioxide]
Cc1cccc(C)c1-c1cccc2c1CC[C@H]2Oc1ccc(C2CC(=O)NS(=O)(=O)C2)cc1 (stereo partly drawn) [Example 43, 5-(4-(((R)-4-(2,6-dimethylphenyl)-2,3-dihydro-1H-inden-1-yl)oxy)phenyl)-1,2-thiazinan-3-one 1,1-dioxide]
Cc1cc(OCCCS(C)(=O)=O)cc(C)c1-c1cccc2c1CC[C@H]2Oc1ccc(C2CC(=O)N[S+]2[O-])cc1 (single isomer, unassigned) [Example 59]
Cc1nc(OCCC(C)(C)O)ccc1Oc1cccc2c1CC[C@H]2Oc1ccc(C2CC(O)=N[S+]2[O-])cc1 (single isomer, unassigned) [51(A)-b]
CCOCCOc1ccc(-c2cccc3c2CC[C@H]3Oc2ccc(C3CC(O)=N[S+]3[O-])cc2)c(C)n1 (single isomer, unassigned) [54(A)-b]
Cc1cc(OCCCS(C)(=O)=O)cc(C)c1-c1cccc2c1CC[C@H]2Oc1ccc(C2CC(=O)NS(=O)(=O)C2)cc1 (stereo partly drawn) [Example 45, 5-(4-(((R)-4-(2,6-dimethyl-4-(3-(methylsulfonyl)propoxy)phenyl)-2,3-dihydro-1H-inden-1-yl)oxy)phenyl)-1,2-thiazinan-3-one 1,1-dioxide]
Cc1nc(OCCC(C)(C)O)ccc1-c1cccc2c1CC[C@H]2Oc1ccc(C2CC(=O)NS(=O)(=O)C2)cc1 (stereo partly drawn) [Example 36, 5-(4-(((R)-4-(6-(3-hydroxy-3-methylbutoxy)-2-methylpyridin-3-yl)-2,3-dihydro-1H-inden-1-yl)oxy)phenyl)-1,2-thiazinan-3-one 1,1-dioxide]

From patent publication US9072758B2, “Cyclic amide derivative” (MOCHIDA PHARMACEUTICAL CO., LTD., priority 2011, dated 2015)
